In PMC5814837 (Pest Management Science, 2017):

The molecules below were run against mitochondrial succinate dehydrogenase (SDH) (Zymoseptoria tritici, UniProt F9X9V6+F9XH52+O42772, A84V) (assay: biochemical). Conditions: IC50.
For `Cn1cc(C(=O)Nc2ccc(F)cc2-c2ccc(Cl)c(Cl)c2)c(C(F)F)n1` [Bixafen, bixafen], the IC50 was 0.106 ± 0.017 µM.
With `O=C(NCCc1ncc(C(F)(F)F)cc1Cl)c1ccccc1C(F)(F)F` [Fluopyram, fluopyram] the IC50 was 14.8 ± 1.32 µM.
With `Cc1cc(OC(C)C)ccc1C(=O)C(C)(C)NC(=O)c1sccc1C` [Isofetamid, N‐[1,1‐dimethyl‐2‐(4‐isopropoxy‐o‐tolyl)‐2‐oxoethyl]‐3‐methylthiophene‐2‐carboxamide] the IC50 was > 32 µM.
